The source of these data is article PMC6749389, “Synthesis and In Vitro Anti-Toxoplasma gondii Activity of Novel Thiazolidin-4-one Derivatives” (Molecules, 2019).

A value given as a limit tells only on which side of the number the result lay.

Broadly, the IC50 is the concentration that inhibits the measured activity by half. A word on the melting point: it is the temperature of the solid-liquid transition. The term CC50 denotes the concentration that lowers cell viability or growth by half.

The test system of data set [1] is T. gondii tachyzoites (RH strain). The experiment in a line: In vitro anti-T. gondii activity, [3H]-uracil incorporation assay in infected Hs27 cells. In kind it is cell-based, Toxoplasma gondii. As to conditions: for IC50: Toxoplasma gondii, T. gondii RH tachyzoites proliferation in Hs27 cells, na = not active in the tested concentration range; for SR (selectivity ratio): ratio of CC50 (L929) to IC50 (T. gondii); for inhibition of proliferation, fold better (lower IC50) than sulfadiazine: relative to sulfadiazine.

Data set [2] in a line: Cytotoxic assay (MTT, ISO 10993-5:2009(E)), 24 h treatment. In kind it is cell-based. To be noted: L929 mouse fibroblast cells, L929 mouse fibroblasts, values above highest tested concentration extrapolated. The method, then: The L929 mouse fibroblast (ATTC® CCL-1™, Manassas, VA, USA) were culturing according to the ATCC product sheet. […] The cell viability assay were performed precisely according to international standards (ISO 10993-5:2009(E)), using the tetrazolium salt [3-(4,5-dimethylthiazol-2-yl)-2,5-diphenyltetrazolium bromide] (MTT, Sigma-Aldrich) and mouse fibroblasts L929 cells. Cells (1 × 10^4 per well) were treated 24 h with compounds or drug in different concentration range. The optical density at 570 nm on the ELISA reader (Multiskan EX, Labsystems, Vienna, VA, USA), was read. The results were expressed as a percentage of viability compared to untreated cells. […] The CC30/CC50 represents the concentration of tested compounds or drugs that was required for 30% or 50% cells proliferation inhibition in vitro. According to the previously mentioned ISO 10993-5:2009(E) norm, the CC30 value is recognized as non-cytotoxic concentration for the cell line. All experiments were performed in triplicate.

`O=C(O)CC1SC(=NN=Cc2ccc(O)cc2)N(c2ccc(Cl)cc2)C1=O` (stereo not shown) [Compound 83, [3-(4-Chlorophenyl)-2-{[(4-hydroxyphenyl)methylidene]hydrazinylidene}-4-oxo-1,3-thiazolidin-5-yl]acetic acid] displayed a melting point of 234 to 235 °C. Also, in data set [1], half-maximal inhibition (IC50) required 271 µM and the “SR (selectivity ratio)” value turned out to be 3.34. In data set [2], the CC50 at 24 h was 906 µM.
The matching figures for `O=C(O)CC1SC(=NN=Cc2cccc(O)c2)N(c2ccc(Cl)cc2)C1=O` (stereo not shown) [Compound 82, [3-(4-Chlorophenyl)-2-{[(3-hydroxyphenyl)methylidene]hydrazinylidene}-4-oxo-1,3-thiazolidin-5-yl]acetic acid]: 226 to 228 °C, 263 µM, 2.49 and 656 µM.
The corresponding values for `COC(=O)C=C1SC(=NN=Cc2ccc(O)cc2)N(c2ccccc2)C1=O` [Compound 91, Methyl [2-{[(4-hydroxyphenyl)methylidene]hydrazinylidene}-4-oxo-3-phenyl-1,3-thiazolidin-5-ylidene]acetate] are 222 to 224 °C, 92.9 µM, 5.31 and 493 µM.
In turn, `COc1cc(C=NN=C2SC(CC(=O)O)C(=O)N2c2ccc(Cl)cc2Cl)ccc1O` (stereo not shown) [Compound 88, [3-(2,4-Dichlorophenyl)-2-{[(4-hydroxy-3-methoxyphenyl)methylidene]hydrazinylidene}-4-oxo-1,3-thiazolidin-5-yl]acetic acid] returned a melting point of 226 to 228 °C. Also, in data set [1], half-maximal inhibition (IC50) required 129 µM; the “SR (selectivity ratio)” value worked out at 4.37; the “inhibition of proliferation, fold better (lower IC50) than sulfadiazine” value is “about 90 fold”. The CC50 at 24 h in data set [2] was 566 µM.
`CCOc1cc(C=NN=C2SC(CC(=O)O)C(=O)N2c2ccccc2)ccc1O` (stereo not shown) [Compound 78, [2-{[(3-Ethoxy-4-hydroxyphenyl)methylidene]hydrazinylidene}-4-oxo-3-phenyl-1,3-thiazolidin-5-yl]acetic acid] showed a melting point of 224 to 226 °C. Further, in data set [2], the CC50 at 24 h is no less than 1000 µM.
`COc1cc(C=NN=C2SC(CC(=O)O)C(=O)N2c2ccc(Cl)cc2)ccc1O` (stereo not shown) [Compound 84, [3-(4-Chlorophenyl)-2-{[(4-hydroxy-3-methoxyphenyl)methylidene]hydrazinylidene}-4-oxo-1,3-thiazolidin-5-yl]acetic acid] registered a melting point of 254 to 256 °C. Besides, in data set [1], the concentration for half-maximal inhibition (IC50) was found to be 220 µM and the “SR (selectivity ratio)” value came to 3.76. Also, the CC50 at 24 h in data set [2] was 827 µM.
On to `COC(=O)C=C1SC(=NN=Cc2cccc(O)c2)N(c2ccccc2)C1=O` [Compound 90, Methyl [2-{[(3-hydroxyphenyl)methylidene]hydrazinylidene}-4-oxo-3-phenyl-1,3-thiazolidin-5-ylidene]acetate], for which the melting point lay within 236 to 238 °C. Also, the CC50 at 24 h in data set [2] was 234 µM.
The matching figures for `COC(=O)C=C1SC(=NN=Cc2ccccc2O)N(c2ccccc2)C1=O` [Compound 89, Methyl [2-{[(2-hydroxyphenyl)methylidene]hydrazinylidene}-4-oxo-3-phenyl-1,3-thiazolidin-5-ylidene]acetate]: 242 to 244 °C and 304 µM.
`COC(=O)C=C1SC(=NN=Cc2ccc(O)c(Br)c2)N(c2ccccc2)C1=O` [Compound 95, Methyl [2-{[(3-bromo-4-hydroxyphenyl)methylidene]hydrazinylidene}-4-oxo-3-phenyl-1,3-thiazolidin-5-ylidene]acetate]: the melting point was in the range of 236 to 238 °C. In addition, in data set [1], 28.3 µM corresponded to half-maximal inhibition (IC50) and the “SR (selectivity ratio)” value is on record as 15.11. Further, the “inhibition of proliferation, fold better than sulfadiazine + trimethoprim (5:1)” value in data set [1] (relative to sulfadiazine + trimethoprim (5:1)) was determined as 18 fold. Moreover, the CC50 at 24 h in data set [2] was 428 µM.
On to `O=C1CSC(=NN=Cc2cccc(O)c2)N1c1ccc(Cl)cc1` [Compound 58, 3-(4-Chlorophenyl)-2-{[(3-hydroxyphenyl)methylidene]hydrazinylidene}-1,3-thiazolidin-4-one], for which the melting point lay in the range of 230 to 232 °C. Moreover, the CC50 at 24 h in data set [2] is 173 µM.
With `CCOc1cc(C=NN=C2SC(CC(=O)O)C(=O)N2c2ccc(Cl)cc2)ccc1O` (stereo not shown) [Compound 85], the melting point fell in the range of 224 to 226 °C. In addition, in data set [1], the IC50 was determined as 165 µM and the “SR (selectivity ratio)” value was determined as 4.59. Also, the CC50 at 24 h in data set [2] is 759 µM.
On to `Nc1ccc(S(=O)(=O)Nc2ncccn2)cc1` [Sulfadiazine, 4-amino-N-(2-pyrimidinyl)benzenesulfonamide, reference compound], for which, in data set [1], the IC50 stood at 10900 µM and the “SR (selectivity ratio)” value is no less than 0.92. Also, the CC50 at 24 h in data set [2] was no less than 10000 µM.
Turning to `O=C1CSC(=NN=Cc2ccc(O)cc2)N1c1cccc(Cl)c1` [Compound 54, 3-(3-Chlorophenyl)-2-{[(4-hydroxyphenyl)methylidene]hydrazinylidene}-1,3-thiazolidin-4-one], the melting point lay within 262 to 264 °C. Moreover, in data set [2], the CC50 at 24 h was 289 µM.
The corresponding values for `O=C(O)CC1SC(=NN=Cc2ccc(O)cc2)N(c2ccccc2)C1=O` (stereo not shown) [Compound 76, [2-{[(4-Hydroxyphenyl)methylidene]hydrazinylidene}-4-oxo-3-phenyl-1,3-thiazolidin-5-yl]acetic acid] are 236 to 238 °C and no less than 1000 µM.
The corresponding values for `O=C1CSC(=NN=Cc2ccc(O)cc2)N1c1ccccc1Cl` [Compound 50, 3-(2-Chlorophenyl)-2-{[(4-hydroxyphenyl)methylidene]hydrazinylidene}-1,3-thiazolidin-4-one] are 178 to 180 °C and 226 µM.
With `O=C1CSC(=NN=Cc2ccc(O)cc2)N1c1ccc(Br)cc1` [Compound 66, 3-(4-Bromophenyl)-2-{[(4-hydroxyphenyl)methylidene]hydrazinylidene}-1,3-thiazolidin-4-one], the melting point lay in the range of 288 to 290 °C. Also, in data set [2], the CC50 at 24 h was 247 µM.
As to `O=C(O)CC1SC(=NN=Cc2ccc(O)c(Br)c2)N(c2ccc(Cl)cc2)C1=O` (stereo not shown) [Compound 87, [2-{[(3-Bromo-4-hydroxyphenyl)methylidene]hydrazinylidene}-3-(4-chlorophenyl)-4-oxo-1,3-thiazolidin-5-yl]acetic acid], the melting point was 254 to 255 °C. Also, in data set [1], the IC50 was 116 µM; the “SR (selectivity ratio)” value turned out to be 3.66; the “inhibition of proliferation, fold better (lower IC50) than sulfadiazine” value is on record as “about 90 fold”. Moreover, the CC50 at 24 h in data set [2] is 425 µM.
Take `O=C1CSC(=NN=Cc2cccc(O)c2)N1c1ccc(Br)cc1` [Compound 65, 3-(4-Bromophenyl)-2-{[(3-hydroxyphenyl)methylidene]hydrazinylidene}-1,3-thiazolidin-4-one]: the melting point lay within 242 to 244 °C. The CC50 at 24 h in data set [2] is 83.5 µM.
The matching figures for `O=C1CSC(=NN=Cc2cccc(O)c2)N1c1ccccc1Cl` [Compound 49, 3-(2-Chlorophenyl)-2-{[(3-hydroxyphenyl)methylidene]hydrazinylidene}-1,3-thiazolidin-4-one]: 192 to 194 °C and 188 µM.
The matching figures for `O=C1CSC(=NN=Cc2ccc(O)cc2)N1c1ccc(Cl)cc1` [Compound 59, 3-(4-Chlorophenyl)-2-{[(4-hydroxyphenyl)methylidene]hydrazinylidene}-1,3-thiazolidin-4-one]: 280 to 282 °C and 318 µM.
The corresponding values for `O=C(O)CC1SC(=NN=Cc2ccccc2O)N(c2ccccc2)C1=O` (stereo not shown) [Compound 74, [2-{[(2-Hydroxyphenyl)methylidene]hydrazinylidene}-4-oxo-3-phenyl-1,3-thiazolidin-5-yl]acetic acid] are 228 to 230 °C and 501 µM.
The compound `O=C1CSC(=NN=Cc2cccc(O)c2)N1c1ccccc1` [Compound 42, 2-{[(3-Hydroxyphenyl)methylidene]hydrazinylidene}-3-phenyl-1,3-thiazolidin-4-one] returned a melting point of 235 to 236 °C. Besides, in data set [2], the CC50 at 24 h was 234 µM.
`O=C1CSC(=NN=Cc2cccc(O)c2)N1c1ccc(F)cc1` [Compound 68, 3-(4-Fluorophenyl)-2-{[(3-hydroxyphenyl)methylidene]hydrazinylidene}-1,3-thiazolidin-4-one]: the melting point lay within 204 to 206 °C. Moreover, in data set [2], the 50% cytotoxic concentration (CC50) at 24 h was 180 µM.
In turn, `COC(=O)C=C1SC(=NN=Cc2ccc(O)cc2)N(c2ccc(Cl)cc2)C1=O` [Compound 99, Methyl [3-(4-chlorophenyl)-2-{[(4-hydroxyphenyl)methylidene]hydrazinylidene}-4-oxo-1,3-thiazolidin-5-ylidene]acetate] came in with a melting point of 250 to 251 °C. The CC50 at 24 h in data set [2] was 230 µM.
The corresponding values for `O=C(O)CC1SC(=NN=Cc2cccc(O)c2)N(c2ccccc2)C1=O` (stereo not shown) [Compound 75, [2-{[(3-Hydroxyphenyl)methylidene]hydrazinylidene}-4-oxo-3-phenyl-1,3-thiazolidin-5-yl]acetic acid] are 214 to 216 °C and no less than 1000 µM.
